# In US12612412B2, “Antiviral heterocyclic compounds” (Enanta Pharmaceuticals, Inc., priority 2021, dated 2026):
# Assays:
# [1] = tested on: HMPV clinical isolate TN/1501/A1; experiment: HMPV antiviral assay Method-B (clinical isolate TN/1501/A1 in LLC-MK2 cells, ATP-Lite readout); assay type: cell-based, Human metapneumovirus (HMPV); settings: human metapneumovirus, LLC-MK2, 144 h, hMPV WT1501 (clinical isolate TN/1501/A1), 6 days
# Method in brief: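 EC50 derived by four-parameter logistic fit of percent cell health, measured by ATP-Lite luminescence and normalised to virus-only and uninfected-cell controls. Compounds run in duplicate from 10 μM top, 3-fold, 10 points. Infection: LLC-MK2 cells, MOI 0.014, 2 μg/mL final TPCK-trypsin, serum-free, 6 days at 37° C.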
# [2] = tested on: genotype A, "Long" strain RSV; experiment: RSV-A assay (CPE protection in Hep-2 cells, ATPlite readout); assay type: cell-based, Human respiratory syncytial virus (HRSV); settings: human respiratory syncytial virus, RSV-A Long strain, MOI 0.1, CPE protection, read-out: Human RSV-A (“Long”) EC50
# Method in brief: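 Hep-2 cells (8,000/well) were treated with 2-fold serial compound dilutions in duplicate and infected with RSV at MOI 0.1. After 5 days, protection from cytopathic effect was measured as cell viability by ATPlite luminescence, and EC50 values were derived.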
SMILES,EC50 [1],EC50 [2]
Cc1cnc2c(Cl)cc(C(=O)NC[C@](O)(c3cc4c(c(-c5cccc(Br)c5F)n3)OC[C@]4(C)C(N)=O)C3CC3)cc2c1 [Example 1091],< 500 nM,< 200 nM
COc1cc(C(=O)NC[C@](O)(c2cc3c(c(-c4cccc(Br)c4F)n2)OC[C@]3(C)C(N)=O)C2CC2)cc2cc(Cl)c(C)nc12 [Example 1092],< 500 nM,< 200 nM
Cc1cnc2c(Cl)cc(C(=O)NC[C@](O)(c3cc4c(c(-c5cc(Br)c(F)cc5F)n3)OC[C@]4(C)C(N)=O)C3CC3)cc2c1 [Example 1093],< 500 nM,< 200 nM
COc1cc(C(=O)NC[C@](O)(c2cc3c(c(-c4cc(Br)c(F)cc4F)n2)OC[C@]3(C)C(N)=O)C2CC2)cc2cc(Cl)c(C)nc12 [Example 1094],< 500 nM,< 200 nM
C[C@]1(C(N)=O)COc2c1cc([C@@](O)(CNC(=O)c1ccc3nn(C4CC4)cc3c1)C1CC1)nc2-c1cc(Br)c(F)cc1F [Example 1095],< 500 nM,< 200 nM
C[C@]1(C(N)=O)COc2c1cc([C@@](O)(CNC(=O)c1cc(Cl)c3nn(C4CC4)cc3c1)C1CC1)nc2-c1cc(Br)c(F)cc1F [Example 1096],< 500 nM,< 200 nM
COc1cc(C(=O)NC[C@](O)(c2cc3c(c(-c4cc(Br)c(F)cc4F)n2)OC[C@]3(C)C(N)=O)C2CC2)cc2cn(C(F)F)nc12 [Example 1097],< 500 nM,< 200 nM
COc1cc(C(=O)NC[C@](O)(c2cc3c(c(-c4cccc(Br)c4F)n2)OC[C@]3(C)C(N)=O)C2CC2)cc2cn(C(F)F)nc12 [Example 1098],< 500 nM,< 200 nM
C[C@]1(C(N)=O)COc2c1cc([C@@](O)(CNC(=O)c1cc(Cl)c3nn(C4CC4)cc3c1)C1CC1)nc2-c1cccc(Br)c1F [Example 1099],< 500 nM,< 200 nM
C[C@]1(C(N)=O)COc2c1cc([C@@](O)(CNC(=O)c1ccc3nn(C4CC4)cc3c1)C1CC1)nc2-c1cccc(Br)c1F [Example 1100],< 500 nM,< 200 nM
C[C@]1(C(N)=O)COc2c1cc([C@@](O)(CNC(=O)c1ccc3nn(C4CC4)cc3c1)C1CC1)nc2-c1ccc(F)c(Br)c1F [Example 1101],< 500 nM,< 200 nM
Cc1cnc2c(Cl)cc(C(=O)NC[C@](O)(c3cc4c(c(-c5ccc(F)c(C(F)(F)F)c5)n3)OC[C@]4(C)C(N)=O)C3CC3)cc2c1 [Example 1102],< 500 nM,< 200 nM
COc1cc(C(=O)NC[C@](O)(c2cc3c(c(-c4ccc(F)c(C(F)(F)F)c4)n2)OC[C@]3(C)C(N)=O)C2CC2)cc2cc(Cl)c(C)nc12 [Example 1103],< 500 nM,< 200 nM
COc1cc(C(=O)NC[C@](O)(c2cc3c(c(-c4ccc(F)cc4)n2)OC[C@]3(C)C(N)=O)C(F)(F)F)cc2cc(Cl)c(Cl)nc12 [Example 1104],> 500 nM,> 200 nM
COc1cc(C(=O)NC[C@](O)(c2cc3c(c(-c4ccc(F)cc4)n2)OC[C@]3(C)C(N)=O)C2CC2)cc2cc(Cl)c(Cl)nc12 [Example 1105],> 500 nM,< 200 nM
Cc1cnc2c(OC(F)F)cc(C(=O)NC[C@](O)(c3cc4c(c(-c5cc(Br)c(F)cc5F)n3)OC[C@]4(C)C(N)=O)C3CC3)cc2c1 [Example 1106],< 500 nM,< 200 nM
C[C@]1(C(N)=O)COc2c1cc([C@@](O)(CNC(=O)c1cc(Cl)c3nn(C4CC4)cc3c1)C(F)(F)F)nc2-c1cccc(F)c1Cl [Example 1119],< 500 nM,< 200 nM
COc1cc(C(=O)NC[C@](O)(c2cc3c(c(-c4cccc(F)c4Cl)n2)OC[C@]3(C)C(N)=O)C(F)(F)F)cc2cn(C(F)F)nc12 [Example 1120],< 500 nM,< 200 nM
COc1cc(C(=O)NC[C@](O)(c2cc3c(c(-c4cccc(F)c4Cl)n2)OC[C@]3(C)C(N)=O)C(F)(F)F)cc2cc(Br)cnc12 [Example 1121],< 500 nM,< 200 nM
COc1cc(C(=O)NC[C@](O)(c2cc3c(c(-c4cccc(F)c4Cl)n2)OC[C@]3(C)C(N)=O)C2CC2)cc2cn(C3CC3)nc12 [Example 1122],< 500 nM,< 200 nM
C[C@]1(C(N)=O)COc2c1cc([C@@](O)(CNC(=O)c1cc(Cl)c3nn(C4CC4)cc3c1)C1CC1)nc2-c1cccc(F)c1Cl [Example 1123],< 500 nM,< 200 nM
COc1cc(C(=O)NC[C@](O)(c2cc3c(c(-c4cccc(F)c4Cl)n2)OC[C@]3(C)C(N)=O)C2CC2)cc2cc(Br)cnc12 [Example 1124],< 500 nM,< 200 nM
COc1cc(C(=O)NC[C@](O)(c2cc3c(c(-c4ccc(F)cc4)n2)OC[C@]3(C)C(N)=O)C2CC2)cc2cc(Br)cnc12 [Example 1125],< 500 nM,< 200 nM

# Second part, the compound after the results:
EC50 [1],EC50 [2],SMILES
< 500 nM,< 200 nM,COc1cc(C(=O)NC[C@](O)(c2cc3c(c(-c4cccc(F)c4Cl)n2)OC[C@]3(C)C(N)=O)C2CC2)cc2cc(Br)c(C)nc12 [Example 1126]
< 500 nM,< 200 nM,COc1cc(C(=O)NC[C@](O)(c2cc3c(c(-c4cc(Cl)c(F)cc4F)n2)OC[C@]3(C)C(N)=O)C2(F)CC2)cc2cc(Br)c(C)nc12 [Example 1127]
> 500 nM,< 200 nM,COc1cc(C(=O)NC[C@](O)(c2cc3c(c(-c4ccc(F)cc4)n2)OC[C@]3(C)C(N)=O)C2CC2)cc2cc(C(F)F)nnc12 [Example 1128]
> 500 nM,< 200 nM,C[C@]1(C(N)=O)COc2c1cc([C@@](O)(CNC(=O)c1cc(OC3CC3)c3ncc(C#N)cc3c1)C(F)(F)F)nc2-c1ccc(F)cc1 [Example 1133]
> 500 nM,< 200 nM,COc1cc(C(=O)NC[C@](O)(c2cc3c(c(-c4ccc(F)cc4)n2)OC[C@]3(C)C(N)=O)C(F)(F)F)cc2cc(C#N)cnc12 [Example 1134]
< 500 nM,< 200 nM,COc1cc(C(=O)NC[C@](O)(c2cc3c(c(-c4cc(F)c(F)cc4F)n2)OC[C@]3(C)C(N)=O)C(F)(F)F)cc2cn(C3CC3)nc12 [Example 1135]
< 500 nM,< 200 nM,COc1cc(C(=O)NC[C@](O)(c2cc3c(c(-c4cc(F)c(F)cc4F)n2)OC[C@]3(C)C(N)=O)C(F)(F)F)cc2cn(C(F)F)nc12 [Example 1136]
< 500 nM,< 200 nM,C[C@]1(C(N)=O)COc2c1cc([C@@](O)(CNC(=O)c1ccc3nn(C4CC4)cc3c1)C(F)(F)F)nc2-c1cc(F)c(F)cc1F [Example 1139]
< 500 nM,< 200 nM,COc1cc(C(=O)NC[C@](O)(c2cc3c(c(-c4cc(F)c(F)cc4F)n2)OC[C@]3(C)C(N)=O)C(F)(F)F)cc2cc(Cl)c(C)nc12 [Example 1140]
< 500 nM,< 200 nM,Cc1cnc2c(Cl)cc(C(=O)NC[C@](O)(c3cc4c(c(-c5cc(F)c(F)cc5F)n3)OC[C@]4(C)C(N)=O)C(F)(F)F)cc2c1 [Example 1141]
< 500 nM,< 200 nM,Cc1cnc2c(OC(F)F)cc(C(=O)NC[C@](O)(c3cc4c(c(-c5cc(F)c(F)cc5F)n3)OC[C@]4(C)C(N)=O)C(F)(F)F)cc2c1 [Example 1142]
> 500 nM,< 200 nM,COc1ncc2cc(C(=O)NC[C@](O)(c3cc4c(c(-c5ccc(F)cc5)n3)OC[C@]4(C)C(N)=O)C(F)(F)F)cc(OC)c2n1 [Example 1143]
> 500 nM,< 200 nM,COc1ncc2cc(C(=O)NC[C@](O)(c3cc4c(c(-c5ccc(F)cc5)n3)OC[C@]4(C)C(N)=O)C3CC3)cc(OC)c2n1 [Example 1144]
< 500 nM,< 200 nM,COc1cc(C(=O)NC[C@](O)(c2cc3c(c(-c4cc(F)c(F)cc4F)n2)OC[C@]3(C)C(N)=O)C2CC2)cc2cn(C3CC3)nc12 [Example 1145]
< 500 nM,< 200 nM,COc1cc(C(=O)NC[C@](O)(c2cc3c(c(-c4cc(F)c(F)cc4F)n2)OC[C@]3(C)C(N)=O)C2CC2)cc2cn(C(F)F)nc12 [Example 1146]
< 500 nM,< 200 nM,COc1cc(C(=O)NC[C@](O)(c2cc3c(c(-c4cc(F)c(F)cc4F)n2)OC[C@]3(C)C(N)=O)C2CC2)cc2cn(C3(F)CC3)nc12 [Example 1147]
< 500 nM,< 200 nM,C[C@]1(C(N)=O)COc2c1cc([C@@](O)(CNC(=O)c1cc(Cl)c3nn(C4CC4)cc3c1)C1CC1)nc2-c1cc(F)c(F)cc1F [Example 1148]
< 500 nM,< 200 nM,COc1cc(C(=O)NC[C@](O)(c2cc3c(c(-c4cc(F)c(F)cc4F)n2)OC[C@]3(C)C(N)=O)C2CC2)cc2cc(Br)cnc12 [Example 1149]
< 500 nM,< 200 nM,COc1cc(C(=O)NC[C@](O)(c2cc3c(c(-c4cc(F)c(F)cc4F)n2)OC[C@]3(C)C(N)=O)C2CC2)cc2cc(Br)c(C)nc12 [Example 1150]
< 500 nM,< 200 nM,COc1cc(C(=O)NC[C@](O)(c2cc3c(c(-c4cc(F)c(F)cc4F)n2)OC[C@]3(C)C(N)=O)C2CC2)cc2cc(Cl)c(C)nc12 [Example 1151]
< 500 nM,< 200 nM,Cc1cnc2c(Cl)cc(C(=O)NC[C@](O)(c3cc4c(c(-c5cc(F)c(F)cc5F)n3)OC[C@]4(C)C(N)=O)C3CC3)cc2c1 [Example 1153]
< 500 nM,< 200 nM,COc1cc(C(=O)NC[C@](O)(c2cc3c(c(-c4cc(Cl)c(F)cc4F)n2)OC[C@]3(C)C(N)=O)C2CC2)cc2cc(Br)c(C)nc12 [Example 1154]
< 500 nM,< 200 nM,COc1cc(C(=O)NC[C@](O)(c2cc3c(c(-c4c(F)cc(Cl)cc4F)n2)OC[C@]3(C)C(N)=O)C2CC2)cc2cn(C3CC3)nc12 [Example 1155]
